Data reported in patent publication US20250049914A1, “STEROID ACID-PEPTIDE BASED INTRACELLULAR CARGO DELIVERY” (DEFENCE THERAPEUTICS INC., priority 2021, published 2025).
Where no end group is shown, it is not given here.

Columns and labels:
[1] = tested on: WT MSCs; assay: OVA-DQ processing by WT MSCs; assay type: cell-based, mouse; conditions: OVA-DQ admixed with CA-hnRNPA1
Procedure: (§1) To evaluate OVA uptake, MSCs were first treated with […] of OVA-AF647 admixed with CA-hnRNPA1 for 1 hour at 37° C. then assessed for their fluorescence intensity by flow-cytometry. To evaluate antigen processing, MSCs were incubated with 10 µg/mL OVA-DQ® admixed with A1 at 37° C. Half an hour later, cells were washed, and regular media added. At the end of the indicated incubation time, cells were collected and washed with cold PBS containing 2% FBS. Fluorescence was monitored by flow cytometry.

[2] = tested on: cpMSCs; assay: OVA-AF647 internalization in cpMSCs, flow cytometry; assay type: cell-based; conditions: various molar ratios
Procedure: For this experiment, a cross-presenting mesenchymal stromal cell line (cpMSC) was used as the antigen presenting cells, which were pulsed with the OVA cargo labelled with Alexa Fluor 647 (i.e., OVA^647)^TM. OVA^647 fluorescence was measured by flow cytometry. Different ratios of CA (NLS1 RPS17 [FIG. 16A]; NLS3 RPS17 [FIG. 16B]; and PQBP-1 [FIG. 16C] to antigen (CA: OVA=22:1, 12:1, 8:1, 4:1, and 2:1) were tested (hnRNPA1 M9 NLS at 2:1).
To further dissect the effect of bile acid peptide conjugates on antigen presentation, antigen internalization and processing were evaluated. cpMSCs were pulsed with OVA-labelled with AF647 in the presence of various molar ratios of different bile acid peptide conjugates, NLS1-RPS17 [FIG. 16A]; NLS3 RPS17 [FIG. 16B]; PQBP-1 [FIG. 16C]; and hnRNPA1 M9 NLS [FIG. 6]) and fluorescence was assessed by flow cytometry. […] OVA processing was assessed by pulsing cpMSCs with DQ™-Ovalbumin (OVA-DQ) in the presence of the same bile acid peptide conjugates as in FIGS. 6 and 16.

[3] = tested on: cross-presenting mesenchymal stromal cell line (cpMSC); assay: Antigen-presentation assay using the B3Z reporter system, cross-presenting MSC line; assay type: cell-based; conditions: cpMSCs, OVA admixed, vs OVA alone or OVA mixed with CA-SV40NLS
Procedure: Various bile acid-NLS conjugates were screened using the B3Z reporter system. The B3Z cell line is a T-cell hybridoma specific for the H2-K^b-[…] complex. Once activated via its TCR, the LacZ reporter gene (under the NFAT promoter control) is expressed. Briefly, 1.5×10^5 BMDCs or 2.5×10^5 MSCs were co-cultured with 5×10^4 B3Z cells treated with the mixing conditions of ovalbumin (OVA) and bile acid-NLS conjugates for overnight at 37° C. with 5% CO2. The following day, all cells were washed twice with PBS (pH 7.4), and the cell pellets were lysed by adding 100 μL of a lysis buffer containing 0.15 mM chlorophenol red-beta-D-galactopyranoside (CPRG) substrate (Calbiochem, La Jolla, CA), 0.125% NP40 (EMD Sciences, La Jolla, CA), 9 mM MgCl2 (Aldrich, USA) and 100 mM 2-mercaptoethanol in PBS. After a 5- or 24-h incubation at 37° C., absorbance was taken at 570 nm with 636 nm as the reference wavelength. For these experiments, OVA was re-suspended in PBS (pH 7.3) at 5-10 mg/mL. The different bile acid-NLS conjugates were re-suspended in H2O at 10 mg/mL. Bile acid-NLS conjugate: antigen mixtures were prepared at different molar ratios according to Table 1.
Further variants of CA-SV40NLS were synthesized in which the SV40NLS peptide was replaced with peptides comprising other NLS's (Table 5) and the antigen presentation activities of the CA-NLS peptide conjugates were evaluated using the B3Z reporter system as described in Example 1. The following conjugate: antigen molar ratios were tested for each conjugate: 2:1, 4:1, 8:1, 12:1 and 22:1. The results in FIGS. 12-15 compare the antigen presentation activities of different conjugates at the conjugate: antigen ratio that yielded the highest B3Z response (OD570) for that conjugate.

[4] = tested on: WT MSCs; assay: Antigen cross-presentation assay on wild-type MSCs with B3Z cells; assay type: cell-based, mouse
Procedure: In order to generate Bone marrow (BM)-derived mouse MSCs, the femurs of 6-8-week-old female Balb/c or C57BL/6 mice were isolated and flushed with Alpha Modification of Eagle's Medium (AMEM) supplemented with 10% FBS and 50 U/mL Penicillin-Streptomycin in a 10 cm cell culture dish, then incubated at 37° C. Two days later, non-adherent cells were removed and the media replaced every 3 to 4 days until plastic-adherent cells reached 80% confluency. The generated cells were detached using 0.05% trypsin and expanded until a uniform MSC population was obtained. The generated MSCs were validated for their innate phenotype by flow-cytometry for the expression of CD44, CD45, CD73, and CD90. The cells were frozen in liquid nitrogen until use.
To assess cross-presentation assay, 25×10^3 cells MSCs were seeded per well in 24-well plate then pulsed with steroid acid peptide-conjugated for 6 h admixed with OVA. At the end of the pulsing period, the cells were washed to remove excess antigen then 5×10^4 B3Z cells. The cells were incubated for 17-19 hours prior to their lysis and incubation for another 4-6 hours at 37° C. with a CPRG solution. The optical density signal was detected at wavelength 570 using a SynergyH1™ microplate reader (Biotek, Winooski, VT, United States).
To determine whether a similar effect occurs in wild type (WT) (i.e., non-engineered) MSCs, BM-derived MSCs (Example 1) were used instead in the same cross presentation assay with B3Z responder cells.

[5] = tested on: mesenchymal stromal cells (MSCs); assay: OVA-AF647 intracellular delivery, flow cytometry; assay type: cell-based; conditions: OVA-AF647 mixed with 45 μM conjugate, nine hours, vs cargo alone
Procedure: Mesenchymal stromal cells (MSCs) were incubated with either unconjugated fluorescently labeled OVA-AF647 alone or mixed with 45 μM of CA-HnRPA1 NLS steroid acid-peptide for nine hours and then intracellular OVA-AF647 delivery was assessed by flow cytometry as described in Example 1. […] The experiment was repeated with DQ™ OVA as cargo to evaluate the intracellular fate of the cargo delivered upon coincubation with CA-HnRPA1 NLS, as described in Example 4.

[6] = tested on: WT MSCs; assay: OVA-AF647 uptake by WT MSCs; assay type: cell-based, mouse; conditions: OVA-AF647 admixed with CA-hnRNPA1
Procedure: as §1

[7] = tested on: human WT MSCs; assay: OVA uptake by human MSCs, flow cytometry; assay type: cell-based; conditions: CA-hnRNPA1-treated human MSCs

In the case of “CA-hnRNPA1: cholic acid conjugated to hnRNPA1 M9 NLS peptide CSNFGPMKGGNFGGRSSGPY (SEQ ID NO: 4) (not fully specified (N-terminus); also: cholic acid conjugate, site not given here)”, the “OVA processing by WT MSCs” value [1] is reported as “increase in OVA processing”, the “OVA internalization (OVA-AF647 fluorescence)” value [2] is reported as “enhance OVA internalization” and the “antigen-presentation activity of cholic acid-NLS peptide conjugates (B3Z response)” value [3] is reported as “amongst the best enhancers of cross presentation”. The “antigen-presentation activity of cholic acid-NLS peptide conjugates (B3Z response)” value ([3]; listed as CA-hnRNPA1 M9 NLS) was “highly enhance cross presentation”, the “antigen cross-presentation with conjugate diluted in PBS or H2O” value ([4]; WT MSCs) was “enhancement” and the “OVA cross presentation by WT MSCs (B3Z)” value ([4]; WT MSCs pulsed with OVA with or without conjugate) was “significantly enhanced”. For the same substance, the “intracellular OVA-AF647 cargo delivery” value ([5]; listed as CA-HnRPA1) was “increased intracellular cargo delivery”, the “intracellular OVA-AF647 cargo delivery” value ([5]; listed as CA-hnRPA1 M9 NLS) was “increased intracellular delivery” and the “OVA uptake by WT MSCs” value [6] was “increase in OVA uptake”. The “OVA uptake by human MSCs” value [7] was “increase of OVA uptake”.
